The experiment in a line: DPPH radical scavenging antioxidant test. Format: biochemical. The conditions noted are these: for Inhibition (radical scavenging inhibition): 0.2 mL DPPH (0.75 mM), compound 3 μM in ethanol, 30 minutes in the dark, 517 nm. On the procedure: The antioxidant properties of the 8-((4-hydroxynaphthalen-1-yl)diazenyl)naphthalene-1,3-disulfonic acid compound were studied by adding 0.2 mL DPPH (0.75 mM)) to 8-((4-hydroxynaphthalen-1-yl)diazenyl)naphthalene-1,3-disulfonic acid (III) (3 μM) in ethanol. After 30 minutes of incubation in the dark, the absorbance was read against a blank at 517 nm. Ascorbic acid (vitamin C) was used as standard antioxidants (positive control). A blank sample was prepared by 0.2 ml of DPPH in 3 mL ethanol. A negative control sample was run using ethanol instead of the sample. The radical scavenging inhibition was calculated using the following equation: […]

As to `O=S(=O)(O)c1cc(S(=O)(=O)O)c2c(/N=N/c3ccc(O)c4ccccc34)cccc2c1` [Product III, 8-((4-hydroxynaphthalen-1-yl)diazenyl)naphthalene-1,3-disulfonic acid], the “Inhibition (radical scavenging inhibition)” value stood at 52%. Besides, where the note is “DPPH in vitro test, vitamin C as positive control”, the “antioxidant potential (vanishing DPPH radical colors at 517 nm)” value is recorded as “high potential as an antioxidant compared to vitamin C”. As to `O=C1O[C@H]([C@@H](O)CO)C(O)=C1O` [vit c, Ascorbic acid, reference compound], the “Inhibition (radical scavenging inhibition)” value amounted to 74%.

The values are drawn from patent US11970437B1, “8-((4-hydroxynaphthalen-1-yl)diazenyl)naphthalene-1,3-disulfonic acid as an antioxidant compound” (KING FAISAL UNIVERSITY, priority 2023, dated 2024).
